The text below walks through data of US20120121540A1 (priority 2007, published 2012).

One may read the inhibition as how much of the control response was suppressed. The low end stands for a response near the control, the high end for a response far below the control.

The nature of this assay: HCV replicon assay (luciferase reporter, ET cell line). The assay is classed as cell-based. The note with it: Hepatitis C virus, HCV replicon luciferase activity in ET cells. The essentials: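 EC50 and, via WST-1 cytotoxicity, TC50 were fitted with a Hill-coefficient equation to % inhibition across 10 two-fold dilutions. Compounds at 0.1 nM-[…] with 0.5% DMSO were applied 24 h post-seeding to replicon-bearing ET cells (luc-ubi-neo/NS3-5B, adaptive mutations). Firefly luciferase signal was measured after 48-72 h.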
(In antiviral work, replicon cells carry a viral genome segment that copies itself.)
Molecule `O=C(NCc1cccs1)c1nc2c(C(F)(F)F)cc(-c3ccccc3)nn2c1Br` [Compound 250, 3-Bromo-6-phenyl-8-trifluoromethyl-imidazo[1,2-b]pyridazine-2-carboxylic Acid(thiophen-2-ylmethyl)-amide] displayed an inhibition at 10 µM of 92%.

The molecule `O=C(c1cn2cc(-c3ccoc3)cc(C(F)(F)F)c2n1)N1CCC(c2ccc(F)cc2)C1` (stereo not shown) [Compound 251, [3-(4-Fluoro-phenyl)-pyrrolidin-1-yl]-(6-furan-3-yl-8-trifluoromethyl-imidazo[1,2-a]pyridin-2-yl)-methanone] yielded an inhibition at 10 µM of 93.4%.

`O=C(c1nc2c(C(F)(F)F)cc(-c3ccccc3)nn2c1Br)N1CCC(c2ccc(F)cc2)C1` (stereo not shown) [Compound 252, (3-Bromo-6-phenyl-8-trifluoromethyl-imidazo[1,2-b]pyridazin-2-yl)-[3-(4-fluoro-phenyl)-pyrrolidin-1-yl]-methanone] came in with an inhibition at 10 µM of 84.8%.

With `O=C(c1nc2c(C(F)(F)F)cc(-c3ccoc3)cn2c1Br)N1CCC(c2ccc(F)cc2)C1` (stereo not shown) [Compound 253, (3-Bromo-6-furan-3-yl-8-trifluoromethyl-imidazo[1,2-a]pyridin-2-yl)-[3-(4-fluoro-phenyl)-pyrrolidin-1-yl]-methanone], the inhibition at 10 µM was found to be 98%.

Molecule `O=C(c1nc2c(C(F)(F)F)cc(-c3ccoc3)cn2c1-c1ccoc1)N1CCC(c2ccc(F)cc2)C1` (stereo not shown) [Compound 254, (3,6-Di-furan-3-yl-8-trifluoromethyl-imidazo[1,2-a]pyridin-2-yl)-[3-(4-fluoro-phenyl)-pyrrolidin-1-yl]-methanone] displayed an inhibition at 10 µM of 46.9%.

`O=C(c1cn2cc(-c3cn[nH]c3)cc(C(F)(F)F)c2n1)N1CCC(c2ccc(F)cc2)C1` (stereo not shown) [Compound 255, [3-(4-Fluoro-phenyl)-pyrrolidin-1-yl]-[6-(1H-pyrazol-4-yl)-8-trifluoromethyl-imidazo[1,2-a]pyridin-2-yl]-methanone]: the inhibition at 10 µM was determined as 76.6%.

Regarding `O=C(c1nc2c(C(F)(F)F)cc(-c3cn[nH]c3)cn2c1Br)N1CCC(c2ccc(F)cc2)C1` (stereo not shown) [Compound 256, [3-Bromo-6-(1H-pyrazol-4-yl)-8-trifluoromethyl-imidazo[1,2-a]pyridin-2-yl]-[3-(4-fluoro-phenyl)-pyrrolidin-1-yl]-methanone], the inhibition at 10 µM worked out at 92%.

Regarding `O=C(c1nc2c(C(F)(F)F)cc(-c3cn[nH]c3)cn2c1Cl)N1CCC(c2ccccc2F)C1` (stereo not shown) [Compound 257, [3-Chloro-6-(1H-pyrazol-4-yl)-8-trifluoromethyl-imidazo[1,2-a]pyridin-2-yl]-[3-(2-fluoro-phenyl)-pyrrolidin-1-yl]-methanone], testing at 10 µM gave an inhibition of 92.2%.

Consider `O=C(c1nc2c(C(F)(F)F)cc(-c3cn[nH]c3)cn2c1Cl)N1CCC(c2cccc(F)c2)C1` (stereo not shown) [Compound 258, [3-Chloro-6-(1H-pyrazol-4-yl)-8-trifluoromethyl-imidazo[1,2-a]pyridin-2-yl]-[3-(3-fluoro-phenyl)-pyrrolidin-1-yl]-methanone], for which the inhibition at 10 µM came to 91%.

The molecule `O=C(c1nc2c(C(F)(F)F)cc(-c3ccoc3)cn2c1Cl)N1CC=C(c2ccccc2)C1` [Compound 259, (3-chloro-6-furan-3-yl-8-trifluoromethyl-imidazo[1,2-a]pyridin-2-yl)-(3-phenyl-2,5-dihydro-pyrrol-1-yl)-methanone] yielded an inhibition at 10 µM of 99.4%.

Regarding `O=C(c1nc2c(C(F)(F)F)cc(-c3ccoc3)cn2c1Cl)N1CCC(c2ccccc2)C1` (stereo not shown) [Compound 260, (3-Chloro-6-furan-3-yl-8-trifluoromethyl-imidazo[1,2-a]pyridin-2-yl)-(3-phenyl-pyrrolidin-1-yl)-methanone], the inhibition at 10 µM worked out at 96%.

On to `O=C(c1nc2c(C(F)(F)F)cc(-c3ccoc3)cn2c1Cl)N1CC[C@H](c2ccccc2)C1` [Compound 261, (3-Chloro-6-furan-3-yl-8-trifluoromethyl-imidazo[1,2-a]pyridin-2-yl)-(3-(R)-phenyl-pyrrolidin-1-yl)-methanone], for which at 10 µM the inhibition was 87.9%.

The molecule `O=C(c1nc2c(C(F)(F)F)cc(-c3ccoc3)cn2c1Cl)N1CC[C@@H](c2ccccc2)C1` [Compound 262, (3-Chloro-6-furan-3-yl-8-trifluoromethyl-imidazo[1,2-a]pyridin-2-yl)-(3-(S)-phenyl-pyrrolidin-1-yl)-methanone] had an inhibition at 10 µM of 97.3%.

In the case of `O=C(NCc1cccs1)c1nc2c(-c3ccoc3)cc(-c3ccccc3)cn2c1Cl` [Compound 263], the inhibition at 10 µM was 60.3%.

In turn, `CCN(CC)C(=O)/C=C/c1cc(-c2ccccc2)cn2c(Cl)c(C(=O)NCc3cccs3)nc12` [Compound 268, 3-Chloro-8-((E/Z)-2-diethylcarbamoyl-vinyl)-6-phenyl-imidazo[1,2-a]pyridine-2-carboxylic Acid (thiophen-2-ylmethyl)-amide] registered an inhibition at 10 µM of 40.2%.

In turn, `O=C(c1nc2c(C(F)(F)F)cc(-c3ccoc3)cn2c1Cl)N1CCC(c2ccccc2F)CC1` [Compound 275, (3-chloro-6-furan-3-yl-8-trifluoromethyl-imidazo[1,2-a]pyridine-2-yl)-[4-(2-fluoro-phenyl)-piperidin-1-yl]-methanone] registered an inhibition at 10 µM of 97.8%.

For the molecule `O=C(c1nc2c(C(F)(F)F)cc(-c3ccoc3)cn2c1Cl)N1CCC(c2cccc(F)c2)CC1` [Compound 276, (3-Chloro-6-furan-3-yl-8-trifluoromethyl-imidazo[1,2-a]pyridine-2-yl)-[4-(3-fluoro-phenyl)-piperidin-1-yl]-methanone], 10 µM produced 74% inhibition.

Consider `O=C(c1nc2c(C(F)(F)F)cc(-c3ccoc3)cn2c1Cl)N1CCC(c2ccc(F)cc2)CC1` [Compound 277, (3-Chloro-6-furan-3-yl-8-trifluoromethyl-imidazo[1,2-a]pyridine-2-yl)-[4-(4-fluoro-phenyl)-piperidin-1-yl]-methanone], for which at 10 µM the inhibition was 71.7%.

`O=C(NCc1cccs1)c1nc2c(C(F)(F)F)cc(-c3cc[nH]c3)cn2c1Cl` [Compound 279, 3-Chloro-6-(1H-pyrrol-3-yl)-8-trifluoromethyl-imidazo[1,2-a]pyridine-2-carboxylic Acid(thiophen-2-ylmethyl)-amide] registered an inhibition at 10 µM of 95.8%.

In turn, `Cn1cc(-c2cc(C(F)(F)F)c3nc(C(=O)NCc4cccs4)c(Cl)n3c2)cn1` [Compound 280, 3-Chloro-6-(1-methyl-1H-pyrazol-4-yl)-8-trifluoromethyl-imidazo[1,2-a]pyridine-2-carboxylic Acid (thiophen-2-ylmethyl)-amide] came in with an inhibition at 10 µM of 83.9%.

Turning to `CC(C)(C)OC(=O)n1cccc1-c1cc(C(F)(F)F)c2nc(C(=O)NCc3cccs3)c(Cl)n2c1` [Compound 281, 2-{3-Chloro-2-[(thiophen-2-ylmethyl)-carbamoyl]-8-trifluoromethyl-imidazo[1,2-a]pyridin-6-yl}-pyrrole-1-carboxylic Acid Tert-butyl Ester], 10 µM produced 69.3% inhibition.

Take `O=C(NCc1cccs1)c1nc2c(C(F)(F)F)cc(C3=CCCCC3)cn2c1Cl` [Compound 282, 3-Chloro-6-cyclohex-1-enyl-8-trifluoromethyl-imidazo[1,2-a]pyridine-2-carboxylic acid (thiophen-2-ylmethyl)-amide]: testing at 10 µM gave an inhibition of 97.6%.

As for `O=C(NCc1cccs1)c1nc2c(C(F)(F)F)cc(-c3ccn[nH]3)cn2c1Cl` [Compound 283, 3-Chloro-6-(2H-pyrazol-3-yl)-8-trifluoromethyl-imidazo[1,2-a]pyridine-2-carboxylic Acid(thiophen-2-ylmethyl)-amide], 10 µM produced 87.5% inhibition.

As for `O=C(NCc1cccs1)c1nc2c(C(F)(F)F)cc(C3=CCCCO3)cn2c1Cl` [Compound 284, 3-Chloro-6-(5,6-dihydro-4H-pyran-2-yl)-8-trifluoromethyl-imidazo[1,2-a]pyridine-2-carboxylic Acid (thiophen-2-ylmethyl)-amide], the inhibition at 10 µM was determined as 98.8%.

Molecule `O=C(NCc1cccs1)c1nc2c(C(F)(F)F)cc(-c3cnn(Cc4ccccc4)c3)cn2c1Cl` [Compound 285, 6-(1-Benzyl-1H-pyrazol-4-yl)-3-chloro-8-trifluoromethyl-imidazo[1,2-a]pyridine-2-carboxylic Acid (thiophen-2-ylmethyl)-amide] returned an inhibition at 10 µM of 71.8%.

In turn, `CN(C)c1cccc(-c2cc(C(F)(F)F)c3nc(C(=O)NCc4cccs4)c(Cl)n3c2)c1` [Compound 286, 3-Chloro-6-(3-dimethylamino-phenyl)-8-trifluoromethyl-imidazo[1,2-a]pyridine-2-carboxylic Acid (thiophen-2-ylmethyl)-amide] gave an inhibition at 10 µM of 57.9%.

Take `O=C(NCc1cccs1)c1nc2c(C(F)(F)F)cc(/C=C/c3ccccc3)cn2c1Cl` [Compound 287, 3-Chloro-6-styryl-8-trifluoromethyl-imidazo[1,2-a]pyridine-2-carboxylic Acid (thiophen-2-ylmethyl)-amide]: the inhibition at 10 µM amounted to 52.3%.

Molecule `O=C(NCc1cccs1)c1nc2c(C(F)(F)F)cc(-c3cnoc3)cn2c1Cl` [Compound 288, 3-Chloro-6-isoxazol-4-yl-8-trifluoromethyl-imidazo[1,2-a]pyridine-2-carboxylic Acid(thiophen-2-ylmethyl)-amide] had an inhibition at 10 µM of 85%.

For the molecule `Cc1nc(C)c(-c2cc(C(F)(F)F)c3nc(C(=O)NCc4cccs4)c(Cl)n3c2)s1` [Compound 289, 3-Chloro-6-(2,4-dimethyl-thiazol-5-yl)-8-trifluoromethyl-imidazo[1,2-a]pyridine-2-carboxylic Acid (thiophen-2-ylmethyl)-amide], 10 µM produced 30.3% inhibition.

`O=C(NCc1cccs1)c1nc2c(C(F)(F)F)cc(-c3cn[nH]c3)cn2c1Cl` [Compound 290, 3-Chloro-6-(1H-pyrazol-4-yl)-8-trifluoromethyl-imidazo[1,2-a]pyridine-2-carboxylic Acid(thiophen-2-ylmethyl)-amide] had an inhibition at 10 µM of 93.9%.

Consider `O=C(NCc1cccs1)c1nc2c(C(F)(F)F)cc(-c3ccc[nH]3)cn2c1Cl` [Compound 293, 3-Chloro-6-(1H-pyrrol-2-yl)-8-trifluoromethyl-imidazo[1,2-a]pyridine-2-carboxylic Acid(thiophen-2-ylmethyl)-amide], for which the inhibition at 10 µM stood at 87.2%.
